Test results: EP0542363A2 (GLAXO GROUP LIMITED, priority 1991, dated 1993)
Where a name gives a salt, the structure may show the parent alone.

System: human gel filtered platelets (GFP)
Assay: Inhibition of ADP-induced blood platelet aggregation in gel filtered platelets (Born-type optical aggregometer)
Assay type: cell-based
Conditions: 5 min; human GFP approx. 300,000 platelets/µl; human fibrinogen 0.5mg/ml, Ca2+ 1mM, Mg2+ 0.5mM; compounds incubated 5 minutes at 37°C; ADP 1 x 10⁻⁵M; concentration producing 50% inhibition of platelet aggregation; read-out: IC₅₀
Description: Inhibition of blood platelet aggregation by compounds of the invention was determined according to the following procedure. Citrated whole blood (1 part 3.8% trisodium citrate : 9 parts blood) was obtained from human volunteers, free of medication for at least 10 days prior to collection. The blood was incubated with 0.1mM aspirin and 0.05µM prostacyclin and then centrifuged at 1000g for 4 minutes (20°C). The supernatant platelet rich plasma (PRP) was further centrifuged at 1300g for 10 minutes (20°C) to sediment the platelets. The supernatant was discarded and the pellet washed with a physiological salt solution (HEPES 5mM, NaHCO₃ 12mM, NaCl 140mM, KH₂PO₄ 0.74mM, D-Glucose 5.6mM, KCl 2.82mM and BSA 20g/l, pH 7.4) to remove residual plasma. After washing, the pellet was resuspended in physiological salt solution and then applied to a sepharose CL-2B column, pre-equilibrated with physiological salt solution at room temperature. The platelets (GFP) eluted within the void volume and were diluted to approximately 300,000 platelets/µl in buffer. Purified human fibrinogen (Knight L.C. et al, 1981 Thromb. Haemostasis, 46(3), 593-596) was added to a final concentration of 0.5mg/ml together with Ca2+ and Mg2+ at 1mM and 0.5mM respectively. […] The potency of the compounds may be expressed as an IC₅₀ value defined as the concentration of compound required to produce 50% inhibition of platelet aggregation.

**Q.** Which IC50 does the source give for `N=C(NCC(F)(F)F)c1ccc(N2CCN(C3CCN(CC(=O)O)CC3)CC2)cc1` [Example 18, 4-[4-[4-[Imino[(2,2,2-trifluoroethyl)amino]methyl]phenyl]-1-piperazinyl]-1-piperidineacetic acid trifluoroacetate salt] here?
**A.** Its IC50 is 316 nM.

**Q.** With `N=C(N)c1ccc(N2CCN(C3CCN(CC(=O)O)CC3)CC2)cn1` [Example 19, trifluoroacetate salt] as the compound, how does the IC50 read?
**A.** The IC50 was 76 nM.

**Q.** For `Cc1cc(C(=N)N)ccc1N1CCN(C2CCN(CC(=O)O)CC2)CC1` [Example 25, trifluoroacetate salt], which IC50 is on record?
**A.** The IC50 was 569 nM.

**Q.** How did the IC50 turn out when `N=C(N)c1ccc(C2CCN(C3CCN(CC(=O)O)CC3)CC2)cc1` [Example 22, trifluoroacetate salt] was run?
**A.** The IC50 was 71 nM.

**Q.** For `C[N@+]1(CC(=O)O)CC[C@H](C2CCN(c3ccc(C(=N)N)cc3)CC2)CC1` [Example 21, trans-4-[1-[4-(Aminoiminomethyl)phenyl]-4-piperidinyl]-1-(2-hydroxy-2-oxoethyl)-1-methylpiperidinium trifluoroacetate salt], which IC50 is on record?
**A.** Its IC50 is 41 nM.

**Q.** How did the IC50 turn out when `CC(C(=O)O)N1CCC(N2CCN(c3ccc(C(=N)N)cc3)CC2)CC1` (centres unmarked) [Example 26] was run?
**A.** Its IC50 is 177 nM.

**Q.** With `C[C@@H]1CN(CC(=O)O)CC[C@@H]1N1CCN(c2ccc(C(=N)N)cc2)CC1` (relative stereo) [Example 30, cis-4-[4-[4-Aminoiminomethyl)phenyl]-1-piperazinyl]-3-methyl-1-piperidineacetic acid trihydrochloride salt] as the compound, how does the IC50 read?
**A.** The IC50 was 23 nM.

**Q.** Which IC50 does the source give for `C[N@+]1(CC(=O)O)CC[C@H](N2CCN(c3ccc(C(=N)N)cc3)CC2)CC1` [Example 16a, trans-4-[4-[4-(Aminoiminomethyl)phenyl]-1-piperazinyl]-1-(2-hydroxy-2-oxoethyl)-1-methylpiperidinium trifluoroacetate salt] here?
**A.** Its IC50 is 44 nM.

**Q.** How did the IC50 turn out when `COC(=O)NC(=N)c1ccc(N2CCN(C3CCN(CC(=O)O)CC3)CC2)cc1` [Example 34, 4-[4-[4-[Imino[(methoxycarbonyl)amino]methyl]phenyl]-1-piperazinyl]-1-piperidineacetic acid trifluoroacetate salt] was run?
**A.** The IC50 was 1600 nM.

**Q.** For `NC(=NO)c1ccc(N2CCN(C3CCN(CC(=O)O)CC3)CC2)cc1` [Example 17, 4-[4-[4-[Amino(hydroxyimino)methyl]phenyl]-1-piperazinyl]-1-piperidineacetic acid trifluoroacetate], which IC50 is on record?
**A.** The IC50 was 5660 nM.

**Q.** With `N=C(N)c1ccc(N2CCN(C3CCN(CC(=O)O)CC3)CC2)c(Br)c1` [Example 24, trifluoroacetate salt] as the compound, how does the IC50 read?
**A.** The IC50 was 342 nM.

**Q.** With `CCOC(=O)CN1CCC(N2CCN(c3ccc(C(=N)N)cc3)CC2)CC1` [Example 23, trifluoroacetate salt] as the compound, how does the IC50 read?
**A.** The IC50 was 16200 nM.

**Q.** `CC1CN(c2ccc(C(=N)N)cc2)CCN1C1CCN(CC(=O)O)CC1` (centres unmarked) [Example 20, trifluoroacetate salt] was tested. Which IC50 did it give?
**A.** The IC50 was 71 nM.

**Q.** Which IC50 does the source give for `N=C(N)c1ccc(N2CCN(C3CCN(CC(=O)O)CC3)CC2)nc1` [Example 41, trifluoroacetate salt] here?
**A.** The IC50 was 30 nM.

Same assay, conditions: human GFP approx. 300,000 platelets/µl; human fibrinogen 0.5mg/ml, Ca2+ 1mM, Mg2+ 0.5mM; compounds incubated 5 minutes at 37°C; ADP 1 x 10⁻⁵M; concentration producing 50% inhibition of platelet aggregation; read-out: IC₅₀

**Q.** Which IC50 does the source give for “4-[4-[4-[(Diethylphosphinyl)amino]iminomethyl]phenyI]-1-piperazinyl]-1- piperidineacetic acid trifluoroacetate salt [Example 36]” here?
**A.** The IC50 was 2680 nM.

Same assay, conditions: human GFP approx. 300,000 platelets/µl; human fibrinogen 0.5mg/ml, Ca2+ 1mM, Mg2+ 0.5mM; compounds incubated 5 minutes at 37°C; ADP 1 x 10⁻⁵M; concentration producing 50% inhibition of platelet aggregation; trifluoroacetate salt; read-out: IC₅₀

**Q.** For `N=C(N)c1ccc(N2CCN(C3CC[N+](CC(=O)O)(Cc4ccccc4)CC3)CC2)cc1` (stereo not drawn) [Example 28, trans-4-[4-[4-(Aminoiminomethyl)phenyl]-1-piperazinyl]-1-(2-hydroxy-2-oxoethyl)-1-(phenylmethyl)piperidinium trifluoroacetate salt], which IC50 is on record?
**A.** Its IC50 is 38 nM.

**Q.** How did the IC50 turn out when `N=C(N)c1ccc(N2CCN(C3CC[N+](CC(=O)O)(Cc4ccccc4)CC3)CC2)cc1` (stereo not drawn) [Example 29, cis-4-[4-[4-(Aminoiminomethyl)phenyl]-1-piperazinyl]-1-(2-hydroxy-2-oxoethyl)-1-(phenylmethyl)piperidinium trifluoroacetate salt] was run?
**A.** The IC50 was 354 nM.
